System: OVCAR-5 complex spheroid (HUVEC/MSC), viability % T/C
Assay: Anticancer human tumor OVCAR-5 cell line growth inhibition [Asc];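 note: spheroids exposed to agents for 7 days before readout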;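 for viability, T/C: 100% = DMSO vehicle-treated wells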
Details: for IC50: curve of first compound; for viability, T/C: stronger effect = lower value; active = viability on the fitted dose curve at most 10% of control; inactive = the rest
Method: Multicellular complex tumor spheroid response to apoptosis pathway targeting inhibitors Alrizomadlin, Pelcitoclax, and Dasminapant in combination with a variety of drugs and investigational agents in selected tumor cell lines
The MDM2 inhibitor alrizomadlin, the Bcl-2/Bcl-xL inhibitor pelcitoclax, and the IAPs inhibitor dasminapant were evaluated both individually and in combination with standard of care and investigational anticancer small molecules within a complex spheroid model of solid tumors. . Complex spheroids include a stromal component modeled by human endothelial cells (HUVEC) and fibroblasts modeled by human mesenchymal stem cells (MSCs). The concentration ranges selected for each drug and investigational agent were based upon clinically achievable concentrations if the clinical Cmax of the agent was known.
Compounds. The drugs and investigational agents: alrizomadlin (APG-115; NSC831270), pelcitoclax (APG-1252; NSC835773), dasminapant (APG-1387;NSC834197), TAK-243 (NSC785004), copanlisib (NSC809693), olaparib (NSC753686), talazoparib (NSC767125), cobimetinib (NSC 768068), eltanexor (KPT-8602, NSC 794443), abemaciclib (NSC 768073), sotorasib (NSC818433), adagrasib (NSC 831453), MRTX-1133 (NSC 836407), Iadademestat (ORY1001, NSC 806812), and RMC-4630 (NSC839698), were obtained from the NCI Developmental Therapeutics Program Chemical Repository. The FDA-approved anticancer drug set is available from the Developmental Therapeutics Program at https://dtp.cancer.gov/organization/dscb/obtaining/available plates.htm. […] The stock solutions were prepared in dimethyl sulfoxide (DMSO, Sigma-Aldrich, St. Louis, MO, cat. D2650) at 800-fold the tested concentration and stored at -70 degrees C prior to their use. All drugs and investigational agents were tested over a range starting from a high concentration at or near the clinical Cmax and decreasing in half-log increments. If the clinical Cmax for an agent had not been determined, the highest concentration tested was 10 microM.
The patient-derived cancer (PDC) cell lines include five colon adenocarcinomas: 186277-243-T-J2-PDC, 616215-338-R-J1-PDC, 439559-082-T-J2-PDC, 463943-066-T-J2-PDC, and 519858-162-T-J1-PDC; three pancreatic carcinomas: 323965-272-R-J2-PDC, 521955-158-R6-J3-PDC, and 521955-158-R2-J5-PDC; two uterine sarcomas: 327498-152-R-J2-PDC and 993429-296-R-J1-PDC; two rhabdomyosarcomas: 755483-174-R-J1-PDC and 772245-204-R-J1-PDC; two soft tissue sarcomas: 126254-015-R-J1-PDC and 494315-158-R-J1-PDC; two malignant fibrous histiocytomas: 317291-083-R-J1-PDC and 596521-263-R-J1-PDC; two breast carcinomas: 171881-019-R-J1-PDC and 885512-296-R-J2-PDC; and one ovarian carcinoma: 6556581-035-R-J-PDC were obtained from the NCI PDMR, (https://pdmr.cancer.gov). The established cell lines HSSY-2 synovial sarcoma (RRID:CVCL 8719), SYO-1 synovial sarcoma (RRID:CVCL_7146), MPNST malignant peripheral neural sheath tumor were obtained from the Sloan Kettering Institute. The following established cell lines were purchased from the American Type Culture Collection (ATCC, Manassas, VA), Sor the received from the NCI repository:, PANC-1 pancreatic carcinoma (CRL-1469, RRID:CVCL_0480), OVCAR-5 ovarian carcinoma (RRID:CVCL_1628), OVCAR-8 ovarian carcinoma (RRID:CVCL_1629), , MCF-7 breast carcinoma (CRL-12584, RRID:CVCL_0031), MDA-MB-231 breast carcinoma (CRL-12532, RRID:CVCL_0062), NCI-H1876 small cell lung carcinoma (CRL-5902, RRID:CVCL_1503), NCI-H510A small cell lung carcinoma (HTB-184, RRID:CVCL_1565), NCI-H1417 (CRL-5869, RRID:CVCL_1469), and NCI-H196 small cell lung carcinoma (CRL-5823, RRID:CVCL_1509). Dr. Peter Houghton (Greehey Children's Cancer Research Institute, University of Texas Health Science Center, San Antonio, TX) provided Rh-18 rhabdomyosarcoma (RRID:CVCL_1659). Pooled donor human umbilical vein endothelial cells (HUVEC, Lonza, cat. CC-2519) and human mesenchymal stem cells (hMSC, Lonza, cat. PT-2501) were purchased from Lonza (Walkersville, MD).
Cell Culture. […]

Cn1ncnc1[C@H]1c2n[nH]c(=O)c3cc(F)cc(c23)N[C@@H]1c1ccc(F)cc1 + CCN1C(C(=O)NC23CCC(C(=O)O)(CC2)CC3)C(c2cccc(Cl)c2F)C2(C(=O)Nc3cc(Cl)ccc32)C12CCCCC2
> 100 nM: IC50 (second compound 0.03 µM) | IC50 (second compound 0.0949 µM) | IC50 (second compound 0.3 µM) | IC50 (second compound 0.949 µM) | IC50 (second compound 3 µM)
inactive: viability, T/C (second compound 0.03 µM, first compound 0.000316 µM) 108% | viability, T/C (second compound 0.03 µM, first compound 0.001 µM) 108% | viability, T/C (second compound 0.03 µM, first compound 0.00316 µM) 88.9% | viability, T/C (second compound 0.03 µM, first compound 0.01 µM) 94% | viability, T/C (second compound 0.03 µM, first compound 0.0316 µM) 96% | viability, T/C (second compound 0.03 µM, first compound 0.1 µM) 91.1% | viability, T/C (second compound 0.0949 µM, first compound 0.000316 µM) 103% | viability, T/C (second compound 0.0949 µM, first compound 0.001 µM) 109% | viability, T/C (second compound 0.0949 µM, first compound 0.00316 µM) 89.7% | viability, T/C (second compound 0.0949 µM, first compound 0.01 µM) 91% | viability, T/C (second compound 0.0949 µM, first compound 0.0316 µM) 101% | viability, T/C (second compound 0.0949 µM, first compound 0.1 µM) 82.8% | viability, T/C (second compound 0.3 µM, first compound 0.000316 µM) 112% | viability, T/C (second compound 0.3 µM, first compound 0.001 µM) 114% | viability, T/C (second compound 0.3 µM, first compound 0.00316 µM) 102% | viability, T/C (second compound 0.3 µM, first compound 0.01 µM) 80.7% | viability, T/C (second compound 0.3 µM, first compound 0.0316 µM) 98.3% | viability, T/C (second compound 0.3 µM, first compound 0.1 µM) 98.8% | viability, T/C (second compound 0.949 µM, first compound 0.000316 µM) 112% | viability, T/C (second compound 0.949 µM, first compound 0.001 µM) 121% | viability, T/C (second compound 0.949 µM, first compound 0.00316 µM) 106% | viability, T/C (second compound 0.949 µM, first compound 0.01 µM) 97.4% | viability, T/C (second compound 0.949 µM, first compound 0.0316 µM) 106% | viability, T/C (second compound 0.949 µM, first compound 0.1 µM) 88.7% | viability, T/C (second compound 3 µM, first compound 0.000316 µM) 109% | viability, T/C (second compound 3 µM, first compound 0.001 µM) 105% | viability, T/C (second compound 3 µM, first compound 0.00316 µM) 109% | viability, T/C (second compound 3 µM, first compound 0.01 µM) 91.4% | viability, T/C (second compound 3 µM, first compound 0.0316 µM) 106% | viability, T/C (second compound 3 µM, first compound 0.1 µM) 89%

From PubChem BioAssay AID1963436 (Molecular Pharmacology Branch, DTP, NCI, 2024)
